Data as given in US8501713B2, “Drug combinations for the treatment of duchenne muscular dystrophy” (Summit Corporation PLC, priority 2007, dated 2013).

System: Utrophin A promoter linked to a luciferase reporter gene
Assay: Luciferase reporter assay (murine H2K cells)
Type: cell-based
Conditions: luciferase level relative to control, H2K/mdx/Utro A reporter cells, compound 10 μM final concentration; for activity at 10 µM: Mus musculus, H2K mdx, read-out: Activity
Description: 1. Luciferase Reporter Assay (Murine H2K Cells)
The cell line used for the screen is an immortalized mdx mouse H2K cell line that has been stably transfected with a plasmid containing […] fragment of the Utrophin A promoter including the first untranslated exon linked to a luciferase reporter gene. Under conditions of low temperature and interferon containing media, the cells remain as myoblasts. These are plated into 96 well plates and cultured in the presence of compound for three days. The level of luciferase is then determined by cell lysis and reading of the light output from the expressed luciferase gene utilising a plate luminometer.
H2K/mdx/Utro A reporter Cell Line Maintenance
The cells were grown at 33° C. in the presence of 10% CO2. To remove the myoblasts for platting, they were incubated with Trypsin EDTA until the monolayer started to detach.
The plates were then incubated at 33° C. in the presence of 10% CO2 for 24 hrs. Compounds were dosed by adding 10 μl of diluted compound to each well giving a final concentration of 10 μM. The plates were then incubated for a further 48 hrs. Cells were then lysed in situ following the manufacture's protocols (Promega Steady-Glo Luciferase Assay System (E2520). Then counted for 10 seconds using a plate luminometer (Victor1420).
Compounds for screening were stored at −20° C. as 10 mM stocks in 100% DMSO until required.
Biological activity as assessed using the luciferase reporter assay in murine H2K cells, and is classified as follows: […]

SMILES | activity at 10 µM [%] | Activity
CN(C)c1ccc(-c2nc3cc(NC(=O)c4ccncc4)ccc3o2)cc1 [Example 1, N-(2-(4-(dimethylamino)phenyl)benzo[d]oxazol-5-yl)isonicotinamide] | < 200 | 
O=C(Nc1ccc2oc(-c3ccc(F)cc3)nc2c1)c1ccco1 [Example 2, N-(2-(4-fluorophenyl)benzo[d]oxazol-5-yl)furan-2-carboxamide] | < 200 | 
Cn1c(COc2ccc(Cl)cc2)nc2ccccc21 [Example 3, 2-((4-chlorophenoxy)methyl)-1-methyl-1H-benzo[d]imidazole] | 301 to 400 | 
COc1ccc(OCc2nc3ccccc3[nH]2)cc1 [Example 4, 2-((4-methoxyphenoxy)methyl)-1H-benzo[d]imidazole] | 201 to 300 | 
O=C(c1ccccc1)c1ccc2nc(-c3ccccc3)[nH]c2c1 [Example 5, phenyl(2-phenyl-1H-benzo[d]imidazol-6-yl)methanone] | < 200 | 
O=C(Nc1ccc2oc(-c3ccccc3)nc2c1)c1cccnc1 [Example 6, N-(2-phenylbenzo[d]oxazol-5-yl)nicotinamide] | < 200 | 
O=C(CCc1ccccc1)Nc1ccc2oc(-c3ccccc3)nc2c1 [Example 7, 3-phenyl-N-(2-phenylbenzo[d]oxazol-5-yl)propanamide] | < 200 | 
CC(=O)Nc1ccc2oc(-c3ccccc3)nc2c1 [Example 8, N-(2-phenylbenzo[d]oxazol-5-yl)acetamide] | 201 to 300 | 
CCC(=O)Nc1ccc2oc(-c3ccccc3)nc2c1 [Example 9, N-(2-phenylbenzo[d]oxazol-5-yl)propionamide] | 201 to 300 | 
CCCC(=O)Nc1ccc2oc(-c3ccccc3)nc2c1 [Example 10, N-(2-phenylbenzo[d]oxazol-5-yl)butyramide] | 301 to 400 | 
CCCCC(=O)Nc1ccc2oc(-c3ccccc3)nc2c1 [Example 11, N-(2-phenylbenzo[d]oxazol-5-yl)pentanamide] | 201 to 300 | 
CC(C)C(=O)Nc1ccc2oc(-c3ccccc3)nc2c1 [Example 12, N-(2-phenylbenzo[d]oxazol-5-yl)isobutyramide] | 201 to 300 | 
O=C(Nc1ccc2oc(-c3ccccc3)nc2c1)c1ccco1 [Example 13, N-(2-phenylbenzo[d]oxazol-5-yl)furan-2-carboxamide] | 201 to 300 | 
Nc1ccc2oc(-c3ccccc3)nc2c1 [Example 14, 2-phenylbenzo[d]oxazol-5-amine] | 301 to 400 | 
Nc1ccc2oc(-c3ccc(C(F)(F)F)cc3)nc2c1 [Example 15, 2-(4-(trifluoromethyl)phenyl)benzo[d]oxazol-5-amine] | < 200 | 
CCN(CC)c1ccc(-c2nc3cc(N)ccc3o2)cc1 [Example 16, 2-(4-(diethylamino)phenyl)benzo[d]oxazol-5-amine] | 201 to 300 | 
CCN(CC)c1ccc(-c2nc3cc(N)ccc3o2)cc1 [Example 17, 2-(4-(diethylamino)phenyl)benzo[d]oxazol-5-amine] |  | + (Up to 200% relative to control)
Cc1ccc(-c2nc3cc(N)ccc3o2)cc1 [Example 18, 2-p-tolylbenzo[d]oxazol-5-amine] | < 200 | 
Cc1ccc(-c2nc3cc(NC(=O)c4ccc(Cl)cc4)ccc3o2)cc1 [Example 19, 4-chloro-N-(2-p-tolylbenzo[d]oxazol-5-yl)benzamide] | < 200 | 
COc1ccc(C(=O)Nc2ccc3oc(-c4ccc(C)cc4)nc3c2)cc1 [Example 20, 4-methoxy-N-(2-p-tolylbenzo[d]oxazol-5-yl)benzamide] | < 200 | 
O=[N+]([O-])c1ccc2oc(-c3ccccc3O)nc2c1 [Example 21, 2-(5-nitrobenzo[d]oxazol-2-yl)phenol] | < 200 | 
O=C(Nc1ccc2oc(-c3ccccc3)nc2c1)c1ccncc1 [Example 22, N-(2-phenylbenzo[d]oxazol-5-yl)isonicotinamide] | < 200 | 
O=C(Nc1ccc2oc(-c3ccccc3)nc2c1)c1ccc(Cl)cc1 [Example 23, 4-chloro-N-(2-phenylbenzo[d]oxazol-5-yl)benzamide] | < 200 | 
Cc1ccc(C(=O)Nc2ccc3oc(-c4ccccc4)nc3c2)cc1 [Example 24, 4-methyl-N-(2-phenylbenzo[d]oxazol-5-yl)benzamide] | < 200 | 
COc1ccc(C(=O)Nc2ccc3oc(-c4ccccc4)nc3c2)cc1 [Example 25, 4-methoxy-N-(2-phenylbenzo[d]oxazol-5-yl)benzamide] | < 200 | 

SMILES | activity at 10 µM [%] | Activity
COc1ccccc1C(=O)Nc1ccc2oc(-c3ccccc3)nc2c1 [Example 26, 2-methoxy-N-(2-phenylbenzo[d]oxazol-5-yl)benzamide] | < 200 | 
CN(C)c1ccc(C(=O)Nc2ccc3oc(-c4ccccc4)nc3c2)cc1 [Example 27, 4-(dimethylamino)-N-(2-phenylbenzo[d]oxazol-5-yl)benzamide] | < 200 | 
O=C(Nc1ccc2oc(-c3ccccc3)nc2c1)c1ccc(Cl)c(Cl)c1 [Example 28, 3,4-dichloro-N-(2-phenylbenzo[d]oxazol-5-yl)benzamide] | < 200 | 
O=C(Nc1ccc2oc(-c3ccccc3)nc2c1)c1ccc(C(F)(F)F)cc1 [Example 29, N-(2-phenylbenzo[d]oxazol-5-yl)-4-(trifluoromethyl)benzamide] | < 200 | 
O=C(Nc1ccc2oc(-c3ccccc3)nc2c1)c1cc(Cl)cc(Cl)c1 [Example 30, 3,5-dichloro-N-(2-phenylbenzo[d]oxazol-5-yl)benzamide] | < 200 | 
O=C(Nc1ccc2oc(-c3ccccc3)nc2c1)c1ccc(F)cc1 [Example 31, 4-fluoro-N-(2-phenylbenzo[d]oxazol-5-yl)benzamide] | < 200 | 
O=C(Nc1ccc2oc(-c3ccccc3)nc2c1)c1ccc(-c2ccccc2)cc1 [Example 32, N-(2-phenylbenzo[d]oxazol-5-yl)biphenyl-4-carboxamide] | < 200 | 
O=C(Cc1ccccc1)Nc1ccc2oc(-c3ccccc3)nc2c1 [Example 33, 2-phenyl-N-(2-phenylbenzo[d]oxazol-5-yl)acetamide] | < 200 | 
O=C(C=Cc1ccccc1)Nc1ccc2oc(-c3ccccc3)nc2c1 [Example 34, N-(2-phenylbenzo[d]oxazol-5-yl)cinnamamide] | < 200 | 
O=C(Nc1ccc2oc(-c3ccccc3)nc2c1)c1cccc2ccccc12 [Example 35, N-(2-phenylbenzo[d]oxazol-5-yl)-1-naphthamide] | < 200 | 
O=C(Nc1ccc2oc(-c3ccccc3)nc2c1)c1ccc2ccccc2c1 [Example 36, N-(2-phenylbenzo[d]oxazol-5-yl)-2-naphthamide] | < 200 | 
O=C(Nc1ccc2oc(-c3ccccc3)nc2c1)c1cccs1 [Example 37, N-(2-phenylbenzo[d]oxazol-5-yl)thiophene-2-carboxamide] | 201 to 300 | 
Nc1ccc2oc(-c3ccccc3O)nc2c1 [Example 38, 2-(5-aminobenzo[d]oxazol-2-yl)phenol] | 301 to 400 | 
O=C(Nc1ccc2oc(-c3cccnc3)nc2c1)c1ccccc1 [Example 39, N-(2-(pyridin-3-yl)benzo[d]oxazol-5-yl)benzamide] | < 200 | 
O=C(Nc1ccc2oc(-c3cccnc3)nc2c1)c1ccc(Cl)cc1 [Example 40, 4-chloro-N-(2-(pyridin-3-yl)benzo[d]oxazol-5-yl)benzamide] | < 200 | 
Cc1ccc(C(=O)Nc2ccc3oc(-c4cccnc4)nc3c2)cc1 [Example 41, 4-methyl-N-(2-(pyridin-3-yl)benzo[d]oxazol-5-yl)benzamide] | < 200 | 
COc1ccc(C(=O)Nc2ccc3oc(-c4cccnc4)nc3c2)cc1 [Example 42, 4-methoxy-N-(2-(pyridin-3-yl)benzo[d]oxazol-5-yl)benzamide] | < 200 | 
COc1ccccc1C(=O)Nc1ccc2oc(-c3cccnc3)nc2c1 [Example 43, 2-methoxy-N-(2-(pyridin-3-yl)benzo[d]oxazol-5-yl)benzamide] | < 200 | 
CN(C)c1ccc(C(=O)Nc2ccc3oc(-c4cccnc4)nc3c2)cc1 [Example 44, 4-(dimethylamino)-N-(2-(pyridin-3-yl)benzo[d]oxazol-5-yl)benzamide] | < 200 | 
O=C(Nc1ccc2oc(-c3cccnc3)nc2c1)c1ccc(Cl)c(Cl)c1 [Example 45, 3,4-dichloro-N-(2-(pyridin-3-yl)benzo[d]oxazol-5-yl)benzamide] | < 200 | 
O=C(Nc1ccc2oc(-c3cccnc3)nc2c1)c1ccc(C(F)(F)F)cc1 [Example 46, N-(2-(pyridin-3-yl)benzo[d]oxazol-5-yl)-4-(trifluoromethyl)benzamide] | < 200 | 
O=C(Nc1ccc2oc(-c3cccnc3)nc2c1)c1cc(Cl)cc(Cl)c1 [Example 47, 3,5-dichloro-N-(2-(pyridin-3-yl)benzo[d]oxazol-5-yl)benzamide] | < 200 | 
O=C(Nc1ccc2oc(-c3cccnc3)nc2c1)c1ccc(F)cc1 [Example 48, 4-fluoro-N-(2-(pyridin-3-yl)benzo[d]oxazol-5-yl)benzamide] | < 200 | 
O=C(Nc1ccc2oc(-c3cccnc3)nc2c1)c1ccc(-c2ccccc2)cc1 [Example 49, N-(2-(pyridin-3-yl)benzo[d]oxazol-5-yl)biphenyl-4-carboxamide] | < 200 | 
